# Results published in patent US10357526B2, “Compositions for the treatment of infections caused by mite Demodex spp” (PROCAPS S.A., priority 2014, dated 2019).
# Tested on: Demodex Spp
# Assay: Evaluation of the solvent action on the survival of mites
# Conditions: for Average life time of Acaro (mites) in the solvents: neat solvent
# Source text: Before evaluating the miticide effect of each of the oils, miscibility and safety thereof on mites was studied.
Compound,Average life time of Acaro (mites) in the solvents [h],Acaricidal activity of the diluent (within 8 hours)
CCO [Absolute Ethanol],0.03434,–
"CCCCCCCC/C=C\CCCCCCCC(=O)OCCCCCCCCCC [Cetiol V, decyl oleate]",8,did not have acaricidal activity
PEG-7 Glycerol Cocoate [Cetiol HE],0.08938,–
CCCCCCCCCCCCCC(=O)OC(C)C [Isopropyl Myristate],3.37,–
